The nature of data set [1]: Moisture absorption measurement in a Constant Temperature & Humidity Chamber. It counts as physicochemical. To be noted: for Moisture absorption rate, % / Weight gain after moisture absorption: after 5 days; for Weight gain after moisture absorption: about 1 g sample; for Appearance before experiment: before placing in chamber, open glass culture dish. The method, then: On the day before the constant temperature and moisture test, two dry glass culture dishes (without covers) are taken and placed in a Constant Temperature & Humidity Chamber at 25±1° C. and relative humidity of 75±2% for 4 h. The processed dishes are taken out and weighed accurately. The experiment is repeated until the weight is constant, and the data is recorded in Table 3.
Step 2. The raw material LNTII solid amorphous powder and the crystalline form B of LNTII obtained from Example 1 are weighed separately, placed in a glass culture dish without cover with constant weight in Step 1. The culture dish with samples added are placed in a Constant Temperature & Humidity Chamber at 25° C. and relative humidity of 75%. After 5 days, the samples are taken out to observe the appearance changes, weigh, and calculate the moisture absorption. The results are recorded in Table 2 and Table 3, respectively. The results of samples morphology before and after moisture absorption are shown in FIG. 5 and FIG. 6, respectively.
According to the method described herein in Example 9, the crystalline form B of LNTII prepared according to Examples 1-8 is placed in a glass culture dish without cover with constant weight in Step 1. The culture dish with samples added are placed in a Constant Temperature & Humidity Chamber at 25° C. and relative humidity of 75%. After 5 days, the samples are taken out to observe the appearance changes, weigh, and calculate the moisture absorption.

Data set [2] in a line: Stability study in a Constant Temperature & Humidity Chamber (LNTII content by HPLC and appearance). It counts as physicochemical. The note with it: for Content, % (At the end of the 1st month): sealed with aluminum compound packing film; for Content, % (At the end of the 1st month) / Appearance (At the end of the 1st month): 1 month; for Appearance (At the end of the 1st month) / Content, % (At the end of the 2nd month) / Appearance (At the end of the 3rd month) / Content, % (At the end of the 3rd month): sealed; for Content, % (At the end of the 2nd month): 2 months; for Content, % (Day 0): LNTII content by HPLC. As to the method:
In this invention, high-performance liquid chromatography (HPLC) is used to detect the content of LNTII under the following detection conditions:
Chromatographic column: Asahipak NH2P-504E 4.6 mm×250 mm, 5 μm, mobile phase: acetonitrile: water=65:35, flow rate: 1 mL/min, detector: UV-VIS detector, wavelength: 210 nm, column temperature: 30° C., sample volume: 10 μL, and the running time of 30 min.
An amount of 10 g of raw material before crystallization (i.e. LNTII amorphous powder obtained by spray-drying) and 10 g of crystalline form B of LNTII prepared by the method described herein in Examples 1-8 are weighed respectively, sealed with aluminum compound packing film, and placed in a Constant Temperature & Humidity Chamber under the test conditions of at constant temperature of 40° C. and relative humidity of 75%. Samples are taken at the end of the 1st month, the 2nd month, and the 3rd month to test the content of LNTII and observe its appearance.

Setting [3] is: 25° C., relative humidity 75%, Table 4, Examples 1-8.
Setting [4] is: 40° C., relative humidity 75%, 3 months.
Where [5] appears, read: 25° C., relative humidity 75%, Table 3, (weight gain/sample weight) × 100%.

Experimental findings from patent US20250333431A1, “NEW CRYSTAL FORM OF TRISACCHARIDE” (SHANDONG HENGLU BIOTECH. CO., LTD., priority 2022, published 2025) are described below.

As for `CC(=O)NC1C(O)[C@H](O)C(CO)O[C@H]1OC1C(O)[C@H](O[C@@H]2C(CO)OC(O)C(O)C2O)OC(CO)[C@@H]1O` (single isomer, unassigned) [Crystalline form B in Example 8, Lacto-N-triose II], in data set [1] (setting [3]), the “Moisture absorption rate, %” value was found to be 13.61%. Also, in data set [2] (40° C., relative humidity 75%), the “Content, % (At the end of the 1st month)” value is on record as 96.48%; the “Appearance (At the end of the 1st month)” value was “Off-white”; the “Content, % (At the end of the 2nd month)” value was determined as 96.49%. In data set [2] (setting [4]), the “Appearance (At the end of the 3rd month)” value is reported as “Off-white” and the “Content, % (At the end of the 3rd month)” value amounted to 96.46%. The “Content, % (Day 0)” value in data set [2] came out at 96.5%.
Turning to `CC(=O)NC1C(O)[C@H](O)C(CO)O[C@H]1OC1C(O)[C@H](O[C@@H]2C(CO)OC(O)C(O)C2O)OC(CO)[C@@H]1O` (single isomer, unassigned) [Crystalline form B in Example 1, Lacto-N-triose II], in data set [1] (setting [3]), the “Moisture absorption rate, %” value is 14.02%. In addition, in data set [2] (40° C., relative humidity 75%), the “Content, % (At the end of the 1st month)” value is recorded as 96.81%; the “Appearance (At the end of the 1st month)” value is “Off-white”; the “Content, % (At the end of the 2nd month)” value turned out to be 96.78%. Besides, in data set [2] (setting [4]), the “Appearance (At the end of the 3rd month)” value is recorded as “Off-white” and the “Content, % (At the end of the 3rd month)” value was found to be 96.76%. The “Content, % (Day 0)” value in data set [2] came out at 96.8%.
For `CC(=O)NC1C(O)[C@H](O)C(CO)O[C@H]1OC1C(O)[C@H](O[C@@H]2C(CO)OC(O)C(O)C2O)OC(CO)[C@@H]1O` (single isomer, unassigned) [Crystalline form B in Example 5, Lacto-N-triose II], in data set [1] (setting [3]), the “Moisture absorption rate, %” value stood at 13.79%. In data set [2] (40° C., relative humidity 75%), the “Content, % (At the end of the 1st month)” value was determined as 93.56%; the “Appearance (At the end of the 1st month)” value is “Off-white”; the “Content, % (At the end of the 2nd month)” value is reported as 93.48%. Further, in data set [2] (setting [4]), the “Appearance (At the end of the 3rd month)” value is on record as “Off-white” and the “Content, % (At the end of the 3rd month)” value was 93.34%. In addition, in data set [2], the “Content, % (Day 0)” value came out at 93.4%.
In the case of `CC(=O)NC1C(O)[C@H](O)C(CO)O[C@H]1OC1C(O)[C@H](O[C@@H]2C(CO)OC(O)C(O)C2O)OC(CO)[C@@H]1O` (stereo partly shown) [LNTII amorphous powder, Lacto-N-triose II, reference compound], the “Moisture absorption rate, %” value in data set [1] (setting [5]) was determined as 29.47%. Besides, the “Weight gain after moisture absorption” value in data set [1] (25° C., relative humidity 75%) was determined as 0.2951. In addition, the Appearance before experiment result in data set [1] is reported as “Off-white powder”. Moreover, in data set [2] (setting [4]), the “Change of LNTII content during the stability experiment” value is “showed a decreasing trend”; the “Change of appearance/color during the stability experiment” value is “gradually changed to faint yellow”; the “Content, % (At the end of the 3rd month)” value is 90.01%. Moreover, in data set [2] (40° C., relative humidity 75%), the “Content, % (At the end of the 1st month)” value turned out to be 91.01%; the “Appearance (At the end of the 1st month)” value is given as “Off-white”; the “Content, % (At the end of the 2nd month)” value worked out at 90.86%. Further, the “Content, % (Day 0)” value in data set [2] amounted to 91.24%.
For `CC(=O)NC1C(O)[C@H](O)C(CO)O[C@H]1OC1C(O)[C@H](O[C@@H]2C(CO)OC(O)C(O)C2O)OC(CO)[C@@H]1O` (single isomer, unassigned) [Crystalline form B in Example 4, Lacto-N-triose II], in data set [1] (setting [3]), the “Moisture absorption rate, %” value was 13.81%. Also, in data set [2] (40° C., relative humidity 75%), the “Content, % (At the end of the 1st month)” value is 96.13%; the “Appearance (At the end of the 1st month)” value is recorded as “Off-white”; the “Content, % (At the end of the 2nd month)” value is 96.06%. Also, in data set [2] (setting [4]), the “Appearance (At the end of the 3rd month)” value is “Off-white” and the “Content, % (At the end of the 3rd month)” value turned out to be 96.07%. In data set [2], the “Content, % (Day 0)” value came to 96.1%.
For `CC(=O)NC1C(O)[C@H](O)C(CO)O[C@H]1OC1C(O)[C@H](O[C@@H]2C(CO)OC(O)C(O)C2O)OC(CO)[C@@H]1O` (single isomer, unassigned) [Crystalline form B in Example 2, Lacto-N-triose II], in data set [1] (setting [3]), the “Moisture absorption rate, %” value worked out at 14.36%. For the same compound, in data set [2] (40° C., relative humidity 75%), the “Content, % (At the end of the 1st month)” value was 96.44%; the “Appearance (At the end of the 1st month)” value is “Off-white”; the “Content, % (At the end of the 2nd month)” value came out at 96.42%. Besides, in data set [2] (setting [4]), the “Appearance (At the end of the 3rd month)” value is reported as “Off-white” and the “Content, % (At the end of the 3rd month)” value is on record as 96.38%. Further, in data set [2], the “Content, % (Day 0)” value came to 96.5%.
Regarding `CC(=O)NC1C(O)[C@H](O)C(CO)O[C@H]1OC1C(O)[C@H](O[C@@H]2C(CO)OC(O)C(O)C2O)OC(CO)[C@@H]1O` (single isomer, unassigned) [Crystalline form B in Example 6, Lacto-N-triose II], the “Moisture absorption rate, %” value in data set [1] (setting [3]) was 13.32%. Further, in data set [2] (40° C., relative humidity 75%), the “Content, % (At the end of the 1st month)” value was 92.43%; the “Appearance (At the end of the 1st month)” value was “Off-white”; the “Content, % (At the end of the 2nd month)” value is 92.39%. In data set [2] (setting [4]), the “Appearance (At the end of the 3rd month)” value is “Off-white” and the “Content, % (At the end of the 3rd month)” value turned out to be 92.31%. The “Content, % (Day 0)” value in data set [2] is 92.4%.
For the compound `CC(=O)NC1C(O)[C@H](O)C(CO)O[C@H]1OC1C(O)[C@H](O[C@@H]2C(CO)OC(O)C(O)C2O)OC(CO)[C@@H]1O` (single isomer, unassigned) [Crystalline form B in Example 3, Lacto-N-triose II], the “Moisture absorption rate, %” value in data set [1] (setting [3]) came to 13.57%. Further, in data set [2] (40° C., relative humidity 75%), the “Content, % (At the end of the 1st month)” value is 96.92%; the “Appearance (At the end of the 1st month)” value is reported as “Off-white”; the “Content, % (At the end of the 2nd month)” value is given as 96.93%. In data set [2] (setting [4]), the “Appearance (At the end of the 3rd month)” value is “Off-white” and the “Content, % (At the end of the 3rd month)” value was 96.84%. Besides, in data set [2], the “Content, % (Day 0)” value worked out at 96.9%.
As for `CC(=O)NC1C(O)[C@H](O)C(CO)O[C@H]1OC1C(O)[C@H](O[C@@H]2C(CO)OC(O)C(O)C2O)OC(CO)[C@@H]1O` (stereo partly shown) [Crystalline form B of LNTII, Lacto-N-triose II], in data set [1] (25° C., relative humidity 75%, 5 days, conclusion from Tables 2 and 3), the “Stability compared with amorphous powder (from appearance and moisture absorption)” value is reported as “better than that of amorphous powder”. The “Moisture absorption rate, %” value in data set [1] (setting [5]) turned out to be 16.16%. Also, the “Weight gain after moisture absorption” value in data set [1] (25° C., relative humidity 75%) amounted to 0.1617. For the same compound, in data set [1], the Appearance before experiment entry is listed as “Off-white”.
Regarding `CC(=O)NC1C(O)[C@H](O)C(CO)O[C@H]1OC1C(O)[C@H](O[C@@H]2C(CO)OC(O)C(O)C2O)OC(CO)[C@@H]1O` (single isomer, unassigned) [Crystalline form B in Example 7, Lacto-N-triose II], the “Moisture absorption rate, %” value in data set [1] (setting [3]) turned out to be 13.04%. For the same compound, in data set [2] (40° C., relative humidity 75%), the “Content, % (At the end of the 1st month)” value worked out at 93.77%; the “Appearance (At the end of the 1st month)” value was “Off-white”; the “Content, % (At the end of the 2nd month)” value came to 93.81%. Besides, in data set [2] (setting [4]), the “Appearance (At the end of the 3rd month)” value is reported as “Off-white” and the “Content, % (At the end of the 3rd month)” value worked out at 93.75%. For the same compound, the “Content, % (Day 0)” value in data set [2] is 93.8%.
